In patent publication US20220047525A1, “TRANSDERMAL PHARMACEUTICAL FORMULATIONS OF NABILONE ALONE AND IN COMBINATION WITH CANNABINOIDS” (Pike Therapeutics, Inc., priority 2020, published 2022):

Assays:
[1] = in vivo; cited from earlier work
CB1 = CB1 (Homo sapiens, UniProt P21554); details: cited from earlier work
CB2 = CB2 (Homo sapiens, UniProt P34972); details: cited from earlier work
[2] = Tolerability of CBD and THCV daily doses; assay type: in vivo

Chain of CB2 (P34972 whole entry, species assumed): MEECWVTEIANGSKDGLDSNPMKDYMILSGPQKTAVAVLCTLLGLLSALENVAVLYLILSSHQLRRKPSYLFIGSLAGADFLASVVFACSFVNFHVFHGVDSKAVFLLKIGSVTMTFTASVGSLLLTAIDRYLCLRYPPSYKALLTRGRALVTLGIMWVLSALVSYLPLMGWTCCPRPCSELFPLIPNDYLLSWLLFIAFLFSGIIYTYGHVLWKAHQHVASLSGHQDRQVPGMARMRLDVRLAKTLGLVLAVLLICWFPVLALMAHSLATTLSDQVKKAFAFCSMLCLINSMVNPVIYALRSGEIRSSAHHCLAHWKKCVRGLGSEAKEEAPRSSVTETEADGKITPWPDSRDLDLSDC
Chain of CB1 (P21554 whole entry, species assumed): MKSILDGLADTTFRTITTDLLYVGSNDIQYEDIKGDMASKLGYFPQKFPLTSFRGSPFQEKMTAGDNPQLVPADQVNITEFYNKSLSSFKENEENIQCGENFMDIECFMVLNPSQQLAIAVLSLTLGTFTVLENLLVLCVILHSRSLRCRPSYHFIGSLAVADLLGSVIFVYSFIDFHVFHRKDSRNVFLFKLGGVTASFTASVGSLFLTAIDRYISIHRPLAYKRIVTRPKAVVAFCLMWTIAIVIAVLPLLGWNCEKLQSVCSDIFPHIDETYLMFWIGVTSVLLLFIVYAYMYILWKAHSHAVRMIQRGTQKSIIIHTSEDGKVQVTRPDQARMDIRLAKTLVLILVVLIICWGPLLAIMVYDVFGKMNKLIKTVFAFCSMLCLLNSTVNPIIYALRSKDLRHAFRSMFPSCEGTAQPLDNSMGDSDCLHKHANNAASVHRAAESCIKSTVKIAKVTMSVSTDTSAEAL

For CCCCCCC(C)(C)c1cc(O)c2c(c1)OC(C)(C)[C@@H]1CCC(=O)C[C@@H]21 (racemic) [Cesamet, (±)-trans-3-(1,1-dimethylheptyl)-6,6a,7,8,10,10a-hexahydro-lhydroxy-6-6-dimethyl-9H-dibenzo[b,d]pyran-9-one], the reducing spasticity [1] is listed as “positive results”.

For CCCCCn1cc(C(=O)c2ccc(Cl)c3ccccc23)c2ccccc21 [JWH-398], the Ki (CB1) is listed as 2.3 nM and the Ki (CB2) is listed as 2.8 nM.

For CCCCCCC(C)(C)c1cc(O)c2c(c1)oc(=O)c1ccc(OC)cc12 [AM-1710], the “selectivity for CB2 over CB1” value (CB2) is given as 54 ×.

In the case of CCCCCc1cc(O)c2c(c1)OC(C)(C)[C@@H]1CCC(C)=C[C@@H]21 [Marinol], the reducing spasticity [1] is given as “positive results”.

In the case of C=C(C)[C@@H]1CCC(C)=C[C@H]1c1c(O)cc(CCCCC)cc1O [CBD, 2-[(1R,6R)-6-isopropenyl-3-methylcyclohex-2-en-1-yl]-5-pentylbenzene-1,3-diol], the tolerability ([2]; 200 mg CBD per day) is reported as “well tolerated”.

In the case of CCCCCn1cc(C(=O)c2cccc3cccc(Br)c23)c2ccccc21 [JWH-424], the Ki (CB1) is listed as 20.9 nM and the Ki (CB2) is listed as 5.44 nM.

With CCCc1cc(O)c2c(c1)OC(C)(C)[C@@H]1CCC(C)=C[C@@H]21 [THCV, tetrahydrocannbivarin] the tolerability ([2]; 10 mg THCV per day) was “well tolerated”.

For CCCCC/C=C\C/C=C\C/C=C\C/C=C\CCCC(=O)N[C@H](C)CO [Methanandamide], the Ki (CB1) is given as 17.9 nM.

In the case of CCCn1cc(C(=O)c2ccc(C)c3ccccc23)c2ccccc21 [JWH-120], the “selectivity for CB2” value (CB2) is given as 173 fold.

For CCCn1c(C)c(C(=O)c2ccc(C)c3ccccc23)c2ccccc21 [JWH-148], the “selectivity for CB2 over the CB1 subtype” value (CB2) is listed as “more than 8 times”.

In the case of CCCCCCC(C)(C)c1cc(OC)c2c(c1)OC(C)(C)C1CCC(O)CC21 (stereo not drawn) [JWH-350, 11-nor-1-methoxy-3-(1′,1′-dimethylheptyl)-9α-hydroxyhexahydrocannabinol], the “selectivity for CB2” value (CB2) is given as 33 fold.
